Earlier results, collected in patent US20220354784A1, “STABLE LATANOPROST COMPOUND OPHTHALMIC COMPOSITIONS” (Somerset Therapeutics LLC, priority 2021, published 2022).

Settings: patients starting on monotherapy

Row | Compound | rate of adjunctive medication use
1 | CCNC(=O)CCC/C=C\C[C@@H]1[C@@H](/C=C/[C@@H](O)CCc2ccccc2)[C@H](O)C[C@@H]1O [bimatoprost] | 23.2%
2 | CC(C)OC(=O)CCC/C=C\C[C@@H]1[C@@H](/C=C/[C@@H](O)COc2cccc(C(F)(F)F)c2)[C@H](O)C[C@@H]1O [travoprost] | 22.5%
3 | CC(C)OC(=O)CCC/C=C\C[C@@H]1[C@@H](CC[C@@H](O)CCc2ccccc2)[C@H](O)C[C@@H]1O [latanoprost, isopropyl (Z)-7[(1R,2R,3R,5S)3,5-dihydroxy-2-[(3R)-3-hydroxy-5-phenylpentyl]cyclopentyl]-5-heptanoate] | 30.2%
